Source: ChEMBL document CHEMBL1201862, “PubChem BioAssay data set” (2004)
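Tested at 5 concentrations; 48 h exposure; 96-well plates; endpoints linearly interpolated, else capped at highest concentration. GI50: concentration for 50% inhibition of growth.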 The source made the active and inactive calls. Rule as the data show it: active = GI50 up to about 1.1 µM and inactive = higher.

Columns and labels:
Assay in all cases: NCI anticancer screen, dose series, 48 h
CCRF-CEM = system: CCRF-CEM
RXF 393 = system: RXF 393
NCI-H460 = system: NCI-H460
SN12C = system: SN12C
SK-MEL-5 = system: SK-MEL-5
SW-620 = system: SW-620
SF-268 = system: SF-268
RPMI-8226 = system: RPMI-8226
SK-OV-3 = system: SK-OV-3
EKVX = system: EKVX
SR = system: SR
SK-MEL-2 = system: SK-MEL-2
UACC-257 = system: UACC-257
TK-10 = system: TK-10
SNB-19 = system: SNB-19
MDA-MB-435 = system: MDA-MB-435
NCI/ADR-RES = system: NCI/ADR-RES
HCC 2998 = system: HCC 2998
ACHN = system: ACHN
HL-60 = system: HL-60

Row | SMILES | GI50 (CCRF-CEM) | GI50 (RXF 393) | GI50 (NCI-H460) | GI50 (SN12C) | GI50 (SK-MEL-5) | GI50 (SW-620) | GI50 (SF-268) | GI50 (RPMI-8226) | GI50 (SK-OV-3) | GI50 (EKVX) | GI50 (SR) | GI50 (SK-MEL-2) | GI50 (UACC-257) | GI50 (TK-10) | GI50 (SNB-19) | GI50 (MDA-MB-435) | GI50 (NCI/ADR-RES) | GI50 (HCC 2998) | GI50 (ACHN) | GI50 (HL-60)
1 | Nc1nc(N)c(CCCCc2ccccc2)c(N)n1 | > 100 µM (inactive) | > 100 µM (inactive) | > 100 µM (inactive) | > 100 µM (inactive) | > 100 µM (inactive) | > 100 µM (inactive) | > 100 µM (inactive) | > 100 µM (inactive) | > 100 µM (inactive) | > 42.8 µM (inactive) | > 100 µM (inactive) | > 100 µM (inactive) | > 100 µM (inactive) | > 100 µM (inactive) | > 100 µM (inactive) | > 100 µM (inactive) | > 100 µM (inactive) | > 100 µM (inactive) | > 100 µM (inactive) | > 100 µM (inactive)
2 | CCOC(=O)N1CCc2cc(OC)c(OC)c3c2c1cc1cc(OC)c(OC)cc13 | 4.26 µM (inactive) | 2 µM (inactive) | 1.09 µM (active) | 4.62 µM (inactive) | 0.499 µM (active) | 1.15 µM (inactive) | 4.51 µM (inactive) | 3.76 µM (inactive) | 2.56 µM (inactive) | 8.97 µM (inactive) | 0.807 µM (active) | 2.24 µM (inactive) | 12.1 µM (inactive) | 7.98 µM (inactive) | 10.9 µM (inactive) | 0.393 µM (active) | 0.655 µM (active) | 2.29 µM (inactive) | 4.11 µM (inactive) | 1.32 µM (inactive)
3 | CC1=NN(c2nc(N)nc(/C(C#N)=C\c3ccc(-c4ccc([N+](=O)[O-])cc4)o3)n2)C(C)(C)C1 | 0.807 µM (active) | > 100 µM (inactive) | > 100 µM (inactive) | > 100 µM (inactive) | > 100 µM (inactive) | > 100 µM (inactive) | 65.5 µM (inactive) | > 100 µM (inactive) | > 100 µM (inactive) | > 100 µM (inactive) | 11.1 µM (inactive) | > 100 µM (inactive) | > 100 µM (inactive) | > 100 µM (inactive) | > 100 µM (inactive) | > 100 µM (inactive) | > 100 µM (inactive) | > 100 µM (inactive) | > 100 µM (inactive) | 17.1 µM (inactive)
4 | Cc1c(C2=C(Br)C(=O)N(C)C2=O)c(=O)n(C)c(=O)n1C | 12.2 µM (inactive) | 14.3 µM (inactive) | 45.6 µM (inactive) | 95.1 µM (inactive) | 22 µM (inactive) | 31.4 µM (inactive) | 43.5 µM (inactive) | 15.1 µM (inactive) | > 100 µM (inactive) | 21.6 µM (inactive) | 23.1 µM (inactive) | 16.1 µM (inactive) | 17.4 µM (inactive) | 17.4 µM (inactive) | > 100 µM (inactive) | 24.9 µM (inactive) | 27.8 µM (inactive) | 22.2 µM (inactive) | 26.7 µM (inactive) | 17.1 µM (inactive)
5 | CCCCC/C=C1\CCC(CN2CCOCC2)C1=O (stereo not given) | 2.9 µM (inactive) | 5.66 µM (inactive) | 22.1 µM (inactive) | 15.2 µM (inactive) | 15.4 µM (inactive) | 3.2 µM (inactive) | 12.2 µM (inactive) | 0.449 µM (active) | 18.5 µM (inactive) | 17.5 µM (inactive) | 3.52 µM (inactive) | 13.7 µM (inactive) | 9.79 µM (inactive) | 7.59 µM (inactive) | 16.8 µM (inactive) | 5.25 µM (inactive) | 3.94 µM (inactive) | 12.5 µM (inactive) | 15.5 µM (inactive) | 2.26 µM (inactive)
6 | C=C1CC(c2ccc(OCCCN3C(=O)c4ccccc4C3=O)c(OC)c2)OC1=O (stereo not given) | 1.06 µM (active) | 1.95 µM (inactive) | 2.62 µM (inactive) | 6.82 µM (inactive) | 11.1 µM (inactive) | 1.56 µM (inactive) | 8.09 µM (inactive) | 0.849 µM (active) | 15.4 µM (inactive) | 11 µM (inactive) | 0.973 µM (active) | 4.7 µM (inactive) | 3.63 µM (inactive) | 2.39 µM (inactive) | 11.9 µM (inactive) | 2.04 µM (inactive) | 17.9 µM (inactive) | 12 µM (inactive) | 6.25 µM (inactive) | 1.25 µM (inactive)
7 | CCN(CC)C(=S)SC(C(=O)Nc1nnc(-c2ccc(Cl)cc2)o1)c1ccccc1 (stereo not given) | 2.84 µM (inactive) | 14.9 µM (inactive) | 10.4 µM (inactive) | 13.3 µM (inactive) | 4.6 µM (inactive) | 5.41 µM (inactive) | 15.6 µM (inactive) | 4.72 µM (inactive) | 13 µM (inactive) | 8.47 µM (inactive) | 4.97 µM (inactive) | 20.6 µM (inactive) | 31.6 µM (inactive) | 23.5 µM (inactive) | 34.6 µM (inactive) | 14.2 µM (inactive) | 5.68 µM (inactive) | 3.41 µM (inactive) | 6.64 µM (inactive) | 4.85 µM (inactive)
8 | N=C(N)NCCCS(=O)(=O)Nc1ccc(Nc2c3ccccc3nc3cc([N+](=O)[O-])ccc23)cc1 | 12.6 µM (inactive) | 20.8 µM (inactive) | 0.265 µM (active) | 4.83 µM (inactive) | 5.55 µM (inactive) | 14.9 µM (inactive) | 6.19 µM (inactive) | 3.8 µM (inactive) | 17.3 µM (inactive) | 15.7 µM (inactive) | 5.42 µM (inactive) | 21.6 µM (inactive) | 22.5 µM (inactive) | 21.2 µM (inactive) | 2.9 µM (inactive) | > 100 µM (inactive) | 19.6 µM (inactive) | 14.7 µM (inactive) | 21.4 µM (inactive) | 22.3 µM (inactive)
9 | N#C/N=C(/NCc1ccccc1)N(Cc1ccccc1)Cc1ccccc1 | 16.1 µM (inactive) | 27.7 µM (inactive) | 19.6 µM (inactive) | 25.2 µM (inactive) | 14.9 µM (inactive) | 64 µM (inactive) | 22.2 µM (inactive) | 22.9 µM (inactive) | > 10 µM (inactive) | > 10 µM (inactive) | 24.8 µM (inactive) | 15.2 µM (inactive) | > 10 µM (inactive) | 24.8 µM (inactive) | > 89.1 µM (inactive) | 49.1 µM (inactive) | 30.3 µM (inactive) | 32.9 µM (inactive) | > 10 µM (inactive) | 16.8 µM (inactive)
10 | CCC(C)c1c(Cl)nc(Cl)nc1Cl (stereo not given) | 0.1 µM (active) | 8.02 µM (inactive) | 7.46 µM (inactive) | 6.89 µM (inactive) | 2.81 µM (inactive) | 3.71 µM (inactive) | 8.04 µM (inactive) | 11 µM (inactive) | 36.2 µM (inactive) | 15.5 µM (inactive) | 1.25 µM (inactive) | 20.9 µM (inactive) | > 10 µM (inactive) | 21.3 µM (inactive) | 16 µM (inactive) | 2.77 µM (inactive) | 24.2 µM (inactive) | 11.4 µM (inactive) | 3.37 µM (inactive) | 2.99 µM (inactive)
11 | CC(=O)Oc1c2ccsc2c(OC(C)=O)c2ccsc12 | 0.859 µM (active) | 0.0172 µM (active) | 1.81 µM (inactive) | 0.714 µM (active) | 0.167 µM (active) | 1.08 µM (active) | 0.906 µM (active) | 6.56 µM (inactive) | 2.86 µM (inactive) | 1.5 µM (inactive) | 0.317 µM (active) | 0.138 µM (active) | 0.189 µM (active) | 1.97 µM (inactive) | 1.47 µM (inactive) | 0.179 µM (active) | 0.284 µM (active) | 1.8 µM (inactive) | 0.667 µM (active) | 0.647 µM (active)
12 | CC1(C)C2CC(c3ccncc3)ON2C(C)(C)N1O (stereo not given) | > 100 µM (inactive) | > 100 µM (inactive) | > 100 µM (inactive) | > 100 µM (inactive) | > 100 µM (inactive) | > 100 µM (inactive) | > 100 µM (inactive) | > 100 µM (inactive) | > 100 µM (inactive) | > 100 µM (inactive) | > 100 µM (inactive) | > 100 µM (inactive) | > 100 µM (inactive) | > 100 µM (inactive) | > 100 µM (inactive) | > 100 µM (inactive) | > 100 µM (inactive) | > 100 µM (inactive) | > 100 µM (inactive) | > 100 µM (inactive)
13 | O=C(NCCc1ccc(F)cc1)c1cc(/C=C/c2cc(O)ccc2O)ccc1O | 1.61 µM (inactive) | 2.03 µM (inactive) | 9.75 µM (inactive) | 5.51 µM (inactive) | 2.4 µM (inactive) | 7.64 µM (inactive) | 3.47 µM (inactive) | 3.01 µM (inactive) | 13 µM (inactive) | 2.42 µM (inactive) | 2.96 µM (inactive) | 2.67 µM (inactive) | 2.41 µM (inactive) | 2.61 µM (inactive) | 5.45 µM (inactive) | 3.78 µM (inactive) | 2.69 µM (inactive) | 7.23 µM (inactive) | 2.01 µM (inactive) | 2.38 µM (inactive)
14 | CC(NC(=O)/C(C#N)=C/c1ccc2[nH]ccc2c1)c1ccccc1 (stereo not given) | 17.5 µM (inactive) | 19.3 µM (inactive) | 18.4 µM (inactive) | 18.7 µM (inactive) | 18.2 µM (inactive) | 18.3 µM (inactive) | 21.5 µM (inactive) | 21.6 µM (inactive) | 21.9 µM (inactive) | 22 µM (inactive) | 24.2 µM (inactive) | 20.8 µM (inactive) | 21.3 µM (inactive) | 17.9 µM (inactive) | 19.6 µM (inactive) | 13.9 µM (inactive) | 28.8 µM (inactive) | 19.8 µM (inactive) | 21.6 µM (inactive) | 18.7 µM (inactive)
